# Data from US20250302974A1, “LECTIN-DRUG CONJUGATES” (UNICHEM LABORATORIES LIMITED, priority 2021, published 2025).
# Square brackets hold non-standard residues; d marks the D form. Peptide text beside a SMILES is read from it. * marks the point of attachment. Dolaproine = CO[C@@H]([C@@H]1CCCN1)[C@@H](C)C(=O)O; Dil = CC[C@H](C)[C@H](NC)[C@@H](CC(=O)O)OC; X1 = C[C@@H](N*)[C@@H](O)c1ccccc1; NMeV = CN[C@H](C(=O)O)C(C)C
# How the values were obtained:
# [1] = test system: A549 Lungs; assay: Cytotoxic effect by MTT assay, 48 h; conditions: for Percent cytotoxicity wrt control: 48 h
# Description: (§1) Cells were treated with Test Items at various concentrations (0.0001 μM-10 μM) for 48 h. The cells corresponding to Positive Control group were treated with Doxorubicin at a concentration ranging from 0.1 μM-100 μM. The Untreated cells were used as Control. After 48 h of incubation, the effect of Test Items on cytotoxicity of cells was determined by MTT assay, the plates were taken out and 20 μl of 5 mg/m1 of MTT 3-(4,5-dimethythiazol-2-yl)-2,5-diphenyl tetrazolium bromide solution was added to all the wells. Cells were incubated for 3 h at 37° C. The supernatant was aspirated. 150 μl of DMSO was added to each well to dissolve formazan crystals. The absorbance of each well was then read at 540 nm using Synergy HT micro plate reader.
# (§2) The % Cytotoxicity was calculated using the formula:
# (§3) Where, X=Absorbance of cells treated with Test Item; R=Absorbance of Control cells (Untreated cells maintained in growth medium only).
# (§4) Selectivity Index was calculated using the formula:
# (§5) SI=IC50 in Normal cell/IC50 in cancer cell.
# (§6) Activity scores of the Selective Index values were categorized as: • Not selective (SI value ≤1) • Moderately selective (1<SI value <5) • Selective (SI value ≥5)
# [2] = test system: KB cells; assay: MTT cytotoxicity assay, KB cervix; type: cell-based; conditions: Homo sapiens, 48 h
# Description: (§7) The Untreated cells were used as Control. […] Cells were incubated for 3 h at 37° C. The supernatant was aspirated.
# (§8) The % Cytotoxicity was calculated using the formula: […]
# as §4, §5
# [3] = test system: PBMC; assay: MTT cytotoxicity assay, PBMC normal; type: cell-based; conditions: 48 h
# Description: as §7, §8, §4, §5
# [4] = test system: AGS Stomach; assay: Cytotoxic effect by MTT assay, 48 h; conditions: read-out: IC50 Values; AGS Stomach, after 48 h of treatment
# Description: as §1, §2, §3, §4, §5, §6
# [5] = test system: HT29 Colon; assay: Cytotoxic effect by MTT assay, 48 h; conditions: read-out: IC50 Values; HT29 Colon, after 48 h of treatment
# Description: as §1, §2, §3, §4, §5, §6
# [6] = test system: PANC-1 Pancreatic; assay: Cytotoxic effect by MTT assay, 48 h; conditions: for Percent cytotoxicity wrt control: 48 h
# Description: as §1, §2, §3, §4, §5, §6
# [7] = test system: MG-63 Bone; assay: Cytotoxic effect by MTT assay, 48 h; conditions: for Percent cytotoxicity wrt control: 48 h
# Description: as §1, §2, §3, §4, §5, §6
# [8] = test system: KB Cervix; assay: Cytotoxic effect by MTT assay, 48 h; conditions: for Percent cytotoxicity wrt control: KB, 48 h
# Description: as §1, §2, §3, §4, §5, §6
# [9] = test system: MDA-MB-231 Breast; assay: Cytotoxic effect by MTT assay, 48 h; conditions: read-out: IC50 Values; MDA-MB-231 Breast, after 48 h of treatment
# Description: as §1, §2, §3, §4, §5, §6
# [10] = test system: PA-1 Ovary; assay: Cytotoxic effect by MTT assay, 48 h; conditions: for Percent cytotoxicity wrt control: 48 h
# Description: as §1, §2, §3, §4, §5, §6
# [11] = test system: T24 Bladder; assay: Cytotoxic effect by MTT assay, 48 h; conditions: 48 h
# Description: as §1, §2, §3, §4, §5, §6
# [12] = test system: PANC-1 cells; assay: MTT cytotoxicity assay, PANC-1 pancreatic; type: cell-based; conditions: Homo sapiens
# Description: as §7, §8, §4, §5
# [13] = test system: MDA-MB-231 cells; assay: MTT cytotoxicity assay, MDA-MB-231 breast; type: cell-based; conditions: Homo sapiens
# Description: as §7, §8, §4, §5
# [14] = test system: A549 cells; assay: MTT cytotoxicity assay, A549 lungs; type: cell-based; conditions: Homo sapiens
# Description: as §7, §8, §4, §5
# [15] = test system: PBMC Normal; assay: Cytotoxic effect by MTT assay, 48 h; conditions: for Percent cytotoxicity wrt control: PBMC, 48 h
# Description: as §1, §2, §3
# [16] = test system: T24 cells; assay: MTT cytotoxicity assay, T24 bladder; type: cell-based; conditions: Homo sapiens, T-24
# Description: as §7, §8, §4, §5
# [17] = test system: AGS cells; assay: MTT cytotoxicity assay, AGS stomach; type: cell-based; conditions: Homo sapiens, 48 h
# Description: as §7, §8, §4, §5
# [18] = 0.0001 μm, read-out: Percent cytotoxicity wrt control
# [19] = 0.001 μm, read-out: Percent cytotoxicity wrt control
# [20] = 0.01 μm, read-out: Percent cytotoxicity wrt control
# [21] = 0.1 μm, read-out: Percent cytotoxicity wrt control
# [22] = 1 μm, read-out: Percent cytotoxicity wrt control
# [23] = 10 μm, read-out: Percent cytotoxicity wrt control
structure (smiles),measurement,setting,value
"CC[C@H](C)[C@@H]([C@@H](CC(=O)N1CCC[C@H]1[C@H](OC)[C@@H](C)C(=O)N[C@H](C)[C@@H](O)c1ccccc1)OC)N(C)C(=O)[C@@H](NC(=O)[C@@H](NC)C(C)C)C(C)C [MMAE, monomethyl auristatin E] (H-[NMeV]V[Dil][Dolaproine]-X1)",Percent cytotoxicity wrt control,"[1]; A549, 0.0001 μM",27.9%
same,Percent cytotoxicity wrt control,"[1]; A549, 0.001 μM",39.3%
same,Percent cytotoxicity wrt control,"[1]; A549, 0.1 μM",58.8%
same,Percent cytotoxicity wrt control,"[1]; A549, 1 μM",83.6%
same,Percent cytotoxicity wrt control,"[1]; A549, 10 μM",75.8%
same,IC50,"[1]; read-out: IC50 Values, A549 Lungs, after 48 h of treatment",10 nM
same,cytotoxicity at 0.0001 µM,[2]; [18],90.5%
same,cytotoxicity at 0.001 µM,[2]; [19],95.8%
same,cytotoxicity at 0.01 µM,[2]; [20],96.1%
same,cytotoxicity at 0.1 µM,[2]; [21],96.3%
same,cytotoxicity at 1 µM,[2]; [22],96.2%
same,cytotoxicity at 10 µM,[2]; [23],96.3%
same,IC50,[2],0.1 nM
same,IC50,[3]; PBMC (normal),> 10000 nM
same,cytotoxicity at 0.0001 µM,"[3]; PBMC, 0.0001 μm, read-out: Percent cytotoxicity wrt control",-2.7%
same,IC50,[4],1540 nM
same,IC50,[5],50 nM
same,Percent cytotoxicity wrt control,"[6]; PANC-1, 0.0001 μM",38.1%
same,Percent cytotoxicity wrt control,"[6]; PANC-1, 0.001 μM",41%
same,Percent cytotoxicity wrt control,"[6]; PANC-1, 0.01 μM",64.1%
same,Percent cytotoxicity wrt control,"[6]; PANC-1, 0.1 μM",67.7%
same,Percent cytotoxicity wrt control,"[6]; PANC-1, 10 μM",69.7%
same,IC50,"[6]; read-out: IC50 Values, PANC-1 Pancreatic, after 48 h of treatment",1.5 nM
same,Percent cytotoxicity wrt control,"[7]; MG-63, 0.0001 μM",81.7%
same,Percent cytotoxicity wrt control,"[7]; MG-63, 0.001 μM",85.5%
same,Percent cytotoxicity wrt control,"[7]; MG-63, 0.01 μM",86.2%
same,Percent cytotoxicity wrt control,"[7]; MG-63, 0.1 μM",87.4%
same,Percent cytotoxicity wrt control,"[7]; MG-63, 1 μM",85.3%
same,Percent cytotoxicity wrt control,"[7]; MG-63, 10 μM",82.3%
same,IC50,"[7]; read-out: IC50 Values, MG-63 Bone, after 48 h of treatment",≤ 0.1 nM
same,Percent cytotoxicity wrt control,[8]; 0.0001 μM,90.5%
same,Percent cytotoxicity wrt control,[8]; 0.01 μM,96.1%
same,Percent cytotoxicity wrt control,[8]; 0.1 μM,96.3%
same,Percent cytotoxicity wrt control,[8]; 1 μM,96.2%
same,Percent cytotoxicity wrt control,[8]; 10 μM,96.3%
same,IC50,"[8]; read-out: IC50 Values, KB Cervix, after 48 h of treatment",≤ 0.1 nM
same,IC50,[9],> 10000 nM
same,Percent cytotoxicity wrt control,"[10]; PA-1, 0.0001 μM",13.4%
same,Percent cytotoxicity wrt control,"[10]; PA-1, 0.001 μM",57.5%
same,Percent cytotoxicity wrt control,"[10]; PA-1, 0.01 μM",50%
same,Percent cytotoxicity wrt control,"[10]; PA-1, 0.1 μM",57.5%
same,Percent cytotoxicity wrt control,"[10]; PA-1, 1 μM",61.7%
same,Percent cytotoxicity wrt control,"[10]; PA-1, 10 μM",58.3%
same,IC50,"[10]; read-out: IC50 Values, PA-1 Ovary, after 48 h of treatment",30.1 nM
same,Percent cytotoxicity wrt control,"[11]; T24, 0.0001 μM",51.8%
same,Percent cytotoxicity wrt control,"[11]; T24, 0.001 μM",51.1%
same,Percent cytotoxicity wrt control,"[11]; T24, 0.1 μM",44.4%
same,Percent cytotoxicity wrt control,"[11]; T24, 1 μM",44.4%
same,IC50,"[12]; PANC-1, 48 h",1.5 nM
same,cytotoxicity at 0.0001 µM,"[12]; PANC-1, 0.0001 μm, 48 h, read-out: Percent cytotoxicity wrt control",38.1%
same,cytotoxicity at 0.001 µM,"[12]; PANC-1, 0.001 μm, 48 h, read-out: Percent cytotoxicity wrt control",41%
same,cytotoxicity at 0.01 µM,"[12]; PANC-1, 0.01 μm, 48 h, read-out: Percent cytotoxicity wrt control",64.1%
same,cytotoxicity at 0.1 µM,"[12]; PANC-1, 0.1 μm, 48 h, read-out: Percent cytotoxicity wrt control",67.7%
same,cytotoxicity at 1 µM,"[12]; PANC-1, 1 μm, 48 h, read-out: Percent cytotoxicity wrt control",77.1%
same,cytotoxicity at 10 µM,"[12]; PANC-1, 10 μm, 48 h, read-out: Percent cytotoxicity wrt control",69.7%
same,IC50,"[13]; MDA-MB-231, 48 h",> 10000 nM
same,cytotoxicity at 0.0001 µM,"[13]; MDA-MB-231, 0.0001 μm, 48 h, read-out: Percent cytotoxicity wrt control",11.3%
same,cytotoxicity at 0.001 µM,"[13]; MDA-MB-231, 0.001 μm, 48 h, read-out: Percent cytotoxicity wrt control",13.3%
same,cytotoxicity at 0.01 µM,"[13]; MDA-MB-231, 0.01 μm, 48 h, read-out: Percent cytotoxicity wrt control",28.9%
same,cytotoxicity at 0.1 µM,"[13]; MDA-MB-231, 0.1 μm, 48 h, read-out: Percent cytotoxicity wrt control",23.8%
same,cytotoxicity at 1 µM,"[13]; MDA-MB-231, 1 μm, 48 h, read-out: Percent cytotoxicity wrt control",16.8%
same,cytotoxicity at 10 µM,"[13]; MDA-MB-231, 10 μm, 48 h, read-out: Percent cytotoxicity wrt control",26.4%
same,IC50,"[14]; A549, 48 h",10 nM
same,cytotoxicity at 0.0001 µM,"[14]; A549, 0.0001 μm, 48 h, read-out: Percent cytotoxicity wrt control",27.9%
same,cytotoxicity at 0.001 µM,"[14]; A549, 0.001 μm, 48 h, read-out: Percent cytotoxicity wrt control",39.3%
same,cytotoxicity at 0.01 µM,"[14]; A549, 0.01 μm, 48 h, read-out: Percent cytotoxicity wrt control",43.5%
same,cytotoxicity at 0.1 µM,"[14]; A549, 0.1 μm, 48 h, read-out: Percent cytotoxicity wrt control",58.8%
same,cytotoxicity at 1 µM,"[14]; A549, 1 μm, 48 h, read-out: Percent cytotoxicity wrt control",83.6%
same,cytotoxicity at 10 µM,"[14]; A549, 10 μm, 48 h, read-out: Percent cytotoxicity wrt control",75.8%
same,Percent cytotoxicity wrt control,[15]; 0.0001 μM,−2.7%
same,Percent cytotoxicity wrt control,[15]; 0.001 μM,29.8%
same,Percent cytotoxicity wrt control,[15]; 0.01 μM,34.3%
same,Percent cytotoxicity wrt control,[15]; 0.1 μM,34.1%
same,Percent cytotoxicity wrt control,[15]; 1 μM,26.6%
same,Percent cytotoxicity wrt control,[15]; 10 μM,32.5%
same,IC50,"[15]; read-out: IC50 Values, PBMC Normal, after 48 h of treatment",> 10000 nM
same,cytotoxicity at 0.0001 µM,"[16]; T24, 0.0001 μm, 48 h, read-out: Percent cytotoxicity wrt control",51.8%
same,cytotoxicity at 0.001 µM,"[16]; T24, 0.001 μm, 48 h, read-out: Percent cytotoxicity wrt control",51.1%
same,cytotoxicity at 0.01 µM,"[16]; T24, 0.01 μm, 48 h, read-out: Percent cytotoxicity wrt control",46.1%
same,cytotoxicity at 0.1 µM,"[16]; T24, 0.1 μm, 48 h, read-out: Percent cytotoxicity wrt control",44.4%
same,cytotoxicity at 1 µM,"[16]; T24, 1 μm, 48 h, read-out: Percent cytotoxicity wrt control",44.4%
same,cytotoxicity at 10 µM,"[16]; T24, 10 μm, 48 h, read-out: Percent cytotoxicity wrt control",53.2%
same,IC50,"[16]; T24, 48 h",0.01 nM
same,cytotoxicity at 0.0001 µM,[17]; [18],30.9%
same,cytotoxicity at 0.001 µM,[17]; [19],31.7%
same,cytotoxicity at 0.01 µM,[17]; [20],32.6%
same,cytotoxicity at 0.1 µM,[17]; [21],48.2%
same,cytotoxicity at 1 µM,[17]; [22],48.4%
same,cytotoxicity at 10 µM,[17]; [23],54.4%
same,IC50,[17],1540 nM
